Read-outs that look alike come from different tables or passages of the source.
How the values were obtained:
NCI-H510A = experiment: OncoPanel cell proliferation assay, NCI-H510A; assay type: cell-based, human
Procedure: (§1) Cells were grown in RPMI 1640, 10% FBS, 2 mM L-alanyl-L-glutamine, 1 mM Na pyruvate, or a special medium. Cells were seeded into 384-well plates and incubated in a humidified atmosphere of 5% CO2 at 37° C. Compounds were added the day following cell seeding. At the same time, a time zero untreated cell plate was generated. After a 3-day incubation period, cells were fixed and stained to allow fluorescence imaging of nuclei. Compounds (1 mM stock solutions) were serially diluted in half-log steps from the highest test concentration ([…]), and assayed over 10 concentrations with a maximum assay concentration of 0.1% DMSO. Automated fluorescence microscopy was carried out using a Molecular Devices ImageXpress Micro XL high-content imager, and images were collected with a 4× objective. 16-bit TIFF images were acquired and analyzed with MetaXpress 5.1.0.41 software.
(§2) Cell proliferation was measured by the fluorescence intensity of an incorporated nuclear dye. The output is referred to as the relative cell count, where the measured nuclear intensity is transformed to percent of control (POC) using the following formula: […]
(§3) Cellular response parameters were calculated using nonlinear regression to a sigmoidal single-site dose response model:
(§4) EC50 is the test compound concentration at the curve inflection point or half the effective response (parameter C of the fitted curve solution). GI50 is the concentration needed to reduce the observed growth by half (midway between the curve maximum and the time zero value). “Cell Count Activity Area” is an estimate of the integrated area above the curve (Barretina, et al. The Cancer Cell Line Encyclopedia enables predictive modelling of anticancer drug sensitivity. Nature 483: 603-607). […] In rare instances, values <0 or >10 may be observed. […] Curve-fitting, calculations, and report generation was performed using a custom data reduction engine and MathIQ based software (AIM).

ST486 = experiment: OncoPanel cell proliferation assay, ST486; assay type: cell-based, human
Procedure: as §1, §2, §3, §4

CML-T1 = experiment: OncoPanel cell proliferation assay, CML-T1; assay type: cell-based, human
Procedure: as §1, §2, §3, §4

SHP-77 = experiment: OncoPanel cell proliferation assay, SHP-77
Procedure: Cells were seeded into 384-well plates and incubated in a humidified atmosphere of 5% CO2 at 37° C. Compounds were added the day following cell seeding. At the same time, a time zero untreated cell plate was generated. After a 3-day incubation period, cells were fixed and stained to allow fluorescence imaging of nuclei. Compounds (1 mM stock solutions) were serially diluted in half-log steps from the highest test concentration (1 micromol), and assayed over 10 concentrations with a maximum assay concentration of 0.1% DMSO. Automated fluorescence microscopy was carried out using a Molecular Devices ImageXpress Micro XL high-content imager, and images were collected with a 4× objective. 16-bit TIFF images were acquired and analyzed with MetaXpress 5.1.0.41 software.
GI50 is the concentration needed to reduce the observed growth by half (midway between the curve maximum and the time zero value). […] In rare instances, values <0 or >10 may be observed. […] Curve-fitting, calculations, and report generation was performed using a custom data reduction engine and MathIQ based software (AIM).

MES-SA = experiment: OncoPanel cell proliferation assay, MES-SA; assay type: cell-based, human
Procedure: as §1, §2, §3, §4

786-O = experiment: OncoPanel cell proliferation assay, 786-O; assay type: cell-based, human
Procedure: as §1, §2, §3, §4

[1] = Homo sapiens, read-out: Cell Count EC50
[2] = Homo sapiens, read-out: Cell Count GI50
[3] = Homo sapiens, read-out: Cell Count IC50

CO[C@H]1C[C@@H]2CC[C@@H](C)[C@@](O)(O2)C(=O)C(=O)N2CCCC[C@H]2C(=O)O[C@H]([C@H](C)C[C@H]2C[C@H]3C[C@@H]2C[C@@H]3O)CC(=O)[C@H](C)/C=C(\C)[C@@H](O)[C@@H](OC)C(=O)[C@H](C)C[C@H](C)/C=C/C=C/C=C/1C [Formula II, C37-[(1R,2S,4R,5S)-5-hyhroxybicyclo[2.2.1]heptane] rapamycin]
Cell Count Activity Area (NCI-H510A): 2.57 | Relative cell count (%) Mean (NCI-H510A; 1.00E+00 microM): 91.4% | Relative cell count (%) Mean (NCI-H510A; 1.00E-01 microM): 84.2% | Relative cell count (%) Mean (NCI-H510A; 1.00E-02 microM): 99.6% | Relative cell count (%) Mean (NCI-H510A; 1.00E-03 microM): 92.3% | Relative cell count (%) Mean (NCI-H510A; 1.01E-04 microM): 102.2% | Relative cell count (%) Mean (NCI-H510A; 3.16E-01 microM): 88.0% | Relative cell count (%) Mean (NCI-H510A; 3.17E-02 microM): 90.4% | Relative cell count (%) Mean (NCI-H510A; 3.17E-03 microM): 95.4% | Relative cell count (%) Mean (NCI-H510A; 3.18E-04 microM): 101.6% | Relative cell count (%) Mean (NCI-H510A; 3.18E-05 microM): 129.0% | EC50 (NCI-H510A; Homo sapiens, NCl-H510A, Lung, Small cell lung cancer (SCLC), summary Table 5, read-out: EC50): 0.072 nM | EC50 (NCI-H510A; [1]): 0.0717 nM | GI50 (NCI-H510A; [2]): > 1000 nM | IC50 (NCI-H510A; [3]): > 1000 nM | Cell Count Activity Area (ST486): 3.05 | Relative cell count (%) Mean (ST486; 1.00E+00 microM): 55.2% | Relative cell count (%) Mean (ST486; 1.00E-01 microM): 56.2% | Relative cell count (%) Mean (ST486; 1.00E-02 microM): 57.6% | Relative cell count (%) Mean (ST486; 1.00E-03 microM): 72.7% | Relative cell count (%) Mean (ST486; 1.01E-04 microM): 90.5% | Relative cell count (%) Mean (ST486; 3.16E-01 microM): 49.9% | Relative cell count (%) Mean (ST486; 3.17E-02 microM): 55.2% | Relative cell count (%) Mean (ST486; 3.17E-03 microM): 58.2% | Relative cell count (%) Mean (ST486; 3.18E-04 microM): 77.5% | Relative cell count (%) Mean (ST486; 3.18E-05 microM): 92.2% | EC50 (ST486; [1]): 0.581 nM | GI50 (ST486; [2]): 1.17 nM | IC50 (ST486; [3]): > 1000 nM | Cell Count Activity Area (CML-T1): 3.68 | Relative cell count (%) Mean (CML-T1; 1.00E+00 microM): 44.0% | Relative cell count (%) Mean (CML-T1; 1.00E-01 microM): 46.4% | Relative cell count (%) Mean (CML-T1; 1.00E-02 microM): 54.5% | Relative cell count (%) Mean (CML-T1; 1.00E-03 microM): 67.7% | Relative cell count (%) Mean (CML-T1; 1.01E-04 microM): 96.1% | Relative cell count (%) Mean (CML-T1; 3.16E-01 microM): 42.4% | Relative cell count (%) Mean (CML-T1; 3.17E-02 microM): 46.2% | Relative cell count (%) Mean (CML-T1; 3.17E-03 microM): 59.5% | Relative cell count (%) Mean (CML-T1; 3.18E-04 microM): 78.8% | Relative cell count (%) Mean (CML-T1; 3.18E-05 microM): 96.6% | EC50 (CML-T1; [1]): 0.821 nM | GI50 (CML-T1; [2]): 3.64 nM | IC50 (CML-T1; [3]): 12.5 nM | EC50 (SHP-77; Homo sapiens, SHP77, read-out: Cell Count EC50): > 1000 nM | GI50 (SHP-77; Homo sapiens, SHP77, read-out: Cell Count GI50): > 1000 nM | IC50 (SHP-77; Homo sapiens, SHP77, read-out: Cell Count IC50): > 1000 nM | Cell Count Activity Area (SHP-77; SHP-77): 0.76 | Relative cell count (%) Mean (SHP-77; SHP-77, 1.00E+00 microM): 67.9% | Relative cell count (%) Mean (SHP-77; SHP-77, 1.00E-01 microM): 79.9% | Relative cell count (%) Mean (SHP-77; SHP-77, 1.00E-02 microM): 96.8% | Relative cell count (%) Mean (SHP-77; SHP-77, 1.00E-03 microM): 96.1% | Relative cell count (%) Mean (SHP-77; SHP-77, 1.01E-04 microM): 95.8% | Relative cell count (%) Mean (SHP-77; SHP-77, 3.16E-01 microM): 75.2% | Relative cell count (%) Mean (SHP-77; SHP-77, 3.17E-02 microM): 88.0% | Relative cell count (%) Mean (SHP-77; SHP-77, 3.17E-03 microM): 92.3% | Relative cell count (%) Mean (SHP-77; SHP-77, 3.18E-04 microM): 90.6% | Relative cell count (%) Mean (SHP-77; SHP-77, 3.18E-05 microM): 98.5% | Cell Count Activity Area (MES-SA): 4.81 | Relative cell count (%) Mean (MES-SA; 1.00E+00 microM): 26.6% | Relative cell count (%) Mean (MES-SA; 1.00E-01 microM): 31.4% | Relative cell count (%) Mean (MES-SA; 1.00E-02 microM): 43.5% | Relative cell count (%) Mean (MES-SA; 1.00E-03 microM): 71.1% | Relative cell count (%) Mean (MES-SA; 1.01E-04 microM): 107.7% | Relative cell count (%) Mean (MES-SA; 3.16E-01 microM): 26.5% | Relative cell count (%) Mean (MES-SA; 3.17E-02 microM): 35.6% | Relative cell count (%) Mean (MES-SA; 3.17E-03 microM): 53.2% | Relative cell count (%) Mean (MES-SA; 3.18E-04 microM): 90.9% | Relative cell count (%) Mean (MES-SA; 3.18E-05 microM): 105.0% | EC50 (MES-SA; [1]): 1.17 nM | GI50 (MES-SA; [2]): 1.96 nM | IC50 (MES-SA; [3]): 2.74 nM | Relative cell count (%) Mean (786-O; 786-0, 1.00E+00 microM): 36.7% | Relative cell count (%) Mean (786-O; 786-0, 1.00E-01 microM): 45.5% | Relative cell count (%) Mean (786-O; 786-0, 1.00E-02 microM): 55.7% | Relative cell count (%) Mean (786-O; 786-0, 1.00E-03 microM): 78.6% | Relative cell count (%) Mean (786-O; 786-0, 1.01E-04 microM): 92.0% | Relative cell count (%) Mean (786-O; 786-0, 3.16E-01 microM): 43.3% | Relative cell count (%) Mean (786-O; 786-0, 3.17E-02 microM): 48.2% | Relative cell count (%) Mean (786-O; 786-0, 3.17E-03 microM): 65.0% | Relative cell count (%) Mean (786-O; 786-0, 3.18E-04 microM): 80.1% | Relative cell count (%) Mean (786-O; 786-0, 3.18E-05 microM): 96.8% | Cell Count Activity Area (786-O; 786-O): 4.01 | EC50 (786-O; Homo sapiens, 786-0, 786-O, read-out: Cell Count EC50): 1.59 nM | GI50 (786-O; Homo sapiens, 786-0, 786-O, read-out: Cell Count GI50): 7.1 nM | IC50 (786-O; Homo sapiens, 786-0, 786-O, read-out: Cell Count IC50): 16.2 nM
